Experimental data taken from patent US8299056B2 (Signal Pharmaceuticals, LLC, priority 2008, dated 2012).

Molecular target: T1, Syk (Homo sapiens, UniProt P43405)
T1 construct: purchased Carna Biosciences
Test: Syk HTRF assay
Format: biochemical
Conditions: IC50 activity level, read-out: Activity Level
Outline: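 Read-out is the 665 nm/615 nm time-resolved fluorescence ratio after EDTA stop and Eu-anti-phosphotyrosine plus streptavidin-DyLight 647 detection. Reaction ran 1 h at room temperature with start mix of 87.5 μM ATP and 80 nM substrate peptide in pH 7.6 HEPES/MgCl2 buffer.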

| Structure (SMILES) | IC50 [nM] |
| --- | --- |
| NC(=O)c1nc2ccc(-c3cccc4nc(Nc5ccc(C(F)(F)F)cc5)nn34)cc2[nH]1 [Example 408, 6-(2-(4-(trifluoromethyl)phenylamino)-[1,2,4]triazolo[1,5-a]pyridin-5-yl)-1H-benzo[d]imidazole-2-carboxamide] | 0.005 to 250 |
| Fc1ccc(Nc2nc3cccc(NC4CCCCNC4)n3n2)cc1 (stereo not shown) [Example 427, N^5-(azepan-3-yl)-N^2-(4-fluorophenyl)-[1,2,4]triazolo[1,5-a]pyridine-2,5-diamine] | 250 to 500 |
| NCCn1cnc2ccc(-c3cccc4nc(Nc5ccccc5)nn34)cc21 [Example 515, 5-(1-(2-aminoethyl)-1H-benzo[d]imidazol-6-yl)-N-phenyl-[1,2,4]triazolo[1,5-a]pyridin-2-amine] | 1000 to 10000 |
| NC(=O)c1ccc(Nc2nc3cccc(N[C@H]4CC[C@@H](O)CC4)n3n2)cc1 [Example 429, cis-4-(5-(4-hydroxycyclohexylamino)-[1,2,4]triazolo[1,5-a]pyridin-2-ylamino)benzamide] | 0.005 to 250 |
| Cc1nnc2cc(Nc3nc4cccc(NC5CCOCC5)n4n3)ccn12 [Example 534, N^2-(3-methyl-[1,2,4]triazolo[4,3-a]pyridin-7-yl)-N^5-(tetrahydro-2H-pyran-4-yl)-[1,2,4]triazolo[1,5-a]pyridine-2,5-diamine] | 1000 to 10000 |
| O[C@H]1CC[C@@H](Cc2cccc3nc(Nc4ccc(C(F)(F)F)cc4)nn23)CC1 [Example 399, cis-4-((2-(4-(trifluoromethyl)phenylamino)-[1,2,4]triazolo[1,5-a]pyridin-5-yl)methyl)cyclohexanol] | 0.005 to 250 |
| NCCNc1cc(-c2cccc3nc(Nc4ccccc4)nn23)ccn1 [Example 447, N^1-(4-(2-(phenylamino)-[1,2,4]triazolo[1,5-a]pyridin-5-yl)pyridin-2-yl)ethane-1,2-diamine] | 0.005 to 250 |
| CC(C)(C)OC(=O)N1C(=O)C(C)(C)c2ccc(Nc3nc4cccc(N[C@H]5CC[C@@H](O)CC5)n4n3)cc21 [Example 545, cis-tert-butyl 6-(5-(4-hydroxycyclohexylamino)-[1,2,4]triazolo[1,5-a]pyridin-2-ylamino)-3,3-dimethyl-2-oxoindoline-1-carboxylate] | 0.005 to 250 |
| c1cc(N[C@@H]2CCCNC2)n2nc(Nc3ccc4c(c3)CNC4)nc2c1 [Example 449] | 0.005 to 250 |
| c1ccc(Nc2nc3cccc(NC4CCOCC4)n3n2)cc1 [Example 438, N^2-phenyl-N^5-(tetrahydro-2H-pyran-4-yl)-[1,2,4]triazolo[1,5-a]pyridine-2,5-diamine] | 1000 to 10000 |

Same assay, conditions: activity levels A-D, read-out: Activity Level (IC50 in the Syk HTRF assay)

| Structure (SMILES) | IC50 [nM] |
| --- | --- |
| C[C@@H](CO)Nc1cccc2nc(Nc3ccc(C(F)(F)F)cc3)nn12 [Example 329, (S)-2-(2-(4-(trifluoromethyl)phenylamino)-[1,2,4]triazolo[1,5-a]pyridin-5-ylamino)propan-1-ol] | 500 to 1000 |
| O[C@H]1CC[C@@H](Nc2cccc3nc(Nc4ccncc4)nn23)CC1 [Example 389, cis-4-(2-(pyridin-4-ylamino)-[1,2,4]triazolo[1,5-a]pyridin-5-ylamino)cyclohexanol] | 1000 to 10000 |
| OC1CCC(Cc2cccc3nc(Nc4ccc(C(F)(F)F)cc4)nn23)CC1 (stereo in doubt) [Example 398, trans-4-((2-(4-(trifluoromethyl)phenylamino)-[1,2,4]triazolo[1,5-a]pyridin-5-yl)methyl)cyclohexanol] | 0.005 to 250 |
| CC1CNC(=O)CN1Cc1cccc2nc(Nc3ccc(C(F)(F)F)cc3)nn12 (stereo not shown) [Example 258, 5-methyl-4-((2-(4-(trifluoromethyl)phenylamino)-[1,2,4]triazolo[1,5-a]pyridin-5-yl)methyl)piperazin-2-one] | 500 to 1000 |
| O=C1CN(Cc2cccc3nc(Nc4ccc(C(F)(F)F)cc4)nn23)CC(=O)N1 [Example 264, 4-((2-(4-(trifluoromethyl)phenylamino)-[1,2,4]triazolo[1,5-a]pyridin-5-yl)methyl)piperazine-2,6-dione] | 0.005 to 250 |
| O[C@@H]1CCCC1Nc1cccc2nc(Nc3ccc(C(F)(F)F)cc3)nn12 (stereo in doubt) [Example 377, (1R,2R)-2-(2-(4-(trifluoromethyl)phenylamino)-[1,2,4]triazolo[1,5-a]pyridin-5-ylamino)cyclopentanol] | 0.005 to 250 |
| CNC(=O)c1ccc(Nc2nc3cccc(-n4ccnc4)n3n2)cc1 [Example 241, 4-(5-(1H-imidazol-1-yl)-[1,2,4]triazolo[1,5-a]pyridin-2-ylamino)-N-methylbenzamide] | 1000 to 10000 |
| CCc1n[nH]c2cc(Nc3nc4cccc(N[C@H]5CC[C@@H](O)CC5)n4n3)ccc12 [Example 245, cis-4-(2-(3-ethyl-1H-indazol-6-ylamino)-[1,2,4]triazolo[1,5-a]pyridin-5-ylamino)cyclohexanol] | 0.005 to 250 |
| CC(c1cc[nH]c(=O)c1)c1cccc2nc(Nc3ccc(C(F)(F)F)cc3)nn12 (stereo not shown) [Example 211, 4-(1-(2-(4-(trifluoromethyl)phenylamino)-[1,2,4]triazolo[1,5-a]pyridin-5-yl)ethyl)pyridin-2(1H)-one] | 0.005 to 250 |
| OCC1CCN(Cc2cccc3nc(Nc4ccc(C(F)(F)F)cc4)nn23)C1 (stereo in doubt) [Example 323, (R)-(1-((2-(4-(trifluoromethyl)phenylamino)-[1,2,4]triazolo[1,5-a]pyridin-5-yl)methyl)pyrrolidin-3-yl)methanol] | 1000 to 10000 |
| O[C@H]1CCC[C@H](Nc2cccc3nc(Nc4ccc(C(F)(F)F)cc4)nn23)C1 (racemic) [Example 248, (±)-trans-3-(2-(4-(trifluoromethyl)phenylamino)-[1,2,4]triazolo[1,5-a]pyridin-5-ylamino)cyclohexanol] | 0.005 to 250 |
| OCC1CCCN(Cc2cccc3nc(Nc4ccc(C(F)(F)F)cc4)nn23)C1 (stereo not shown) [Example 273, (1-((2-(4-(trifluoromethyl)phenylamino)-[1,2,4]triazolo[1,5-a]pyridin-5-yl)methyl)piperidin-3-yl)methanol] | 1000 to 10000 |
| Cc1nn(C)c2cc(Nc3nc4cccc(N[C@H]5CC[C@@H](O)CC5)n4n3)ccc12 [Example 218, cis-4-(2-(1,3-dimethyl-1H-indazol-6-ylamino)-[1,2,4]triazolo[1,5-a]pyridin-5-ylamino)cyclohexanol] | 0.005 to 250 |
| Cc1cc(Nc2nc3cccc(N[C@H]4CC[C@@H](O)CC4)n3n2)ccc1F [Example 320, cis-4-(2-(4-fluoro-3-methylphenylamino)-[1,2,4]triazolo[1,5-a]pyridin-5-ylamino)cyclohexanol] | 0.005 to 250 |
| O[C@H]1CC[C@@H](Nc2cccc3nc(Nc4cnc5[nH]ccc5c4)nn23)CC1 [Example 297, cis-4-(2-(1H-pyrrolo[2,3-b]pyridin-5-ylamino)-[1,2,4]triazolo[1,5-a]pyridin-5-ylamino)cyclohexanol] | 0.005 to 250 |
| CN(C)c1ccc(Nc2nc3cccc(N[C@H]4CC[C@@H](O)CC4)n3n2)cn1 [Example 392, cis-4-(2-(6-(dimethylamino)pyridin-3-ylamino)-[1,2,4]triazolo[1,5-a]pyridin-5-ylamino)cyclohexanol] | 250 to 500 |
| O[C@H]1CC[C@@H](Nc2cccc3nc(Nc4cccc(F)c4)nn23)CC1 [Example 355, cis-4-(2-(3-fluorophenylamino)-[1,2,4]triazolo[1,5-a]pyridin-5-ylamino)cyclohexanol] | 0.005 to 250 |
| CNC(=O)c1ccc(Nc2nc3cccc(N4CCC(O)CC4)n3n2)cc1 [Example 242, 4-(5-(4-hydroxypiperidin-1-yl)-[1,2,4]triazolo[1,5-a]pyridin-2-ylamino)-N-methylbenzamide] | 1000 to 10000 |

Same assay, conditions: read-out: Activity Level (Syk HTRF assay IC50)

| Structure (SMILES) | IC50 [nM] |
| --- | --- |
| CN1C(=O)C(C)(C)c2ccc(Nc3nc4cccc(NC5CCOCC5)n4n3)cc21 [Example 151, 1,3,3-trimethyl-6-(5-(tetrahydro-2H-pyran-4-ylamino)-[1,2,4]triazolo[1,5-a]pyridin-2-ylamino)indolin-2-one] | 0.005 to 250 |
| O=C1NCc2cc(Nc3nc4cccc(Cc5ccnc(O)c5)n4n3)ccc21 [Example 157, 5-(5-((2-hydroxypyridin-4-yl)methyl)-[1,2,4]triazolo[1,5-a]pyridin-2-ylamino)isoindolin-1-one] | 0.005 to 250 |
| CN1C(=O)C(C)(C)c2ccc(Nc3nc4cccc(N[C@H]5CC[C@@H](O)CC5)n4n3)cc21 [Example 152, cis-6-(5-(4-hydroxycyclohexylamino)-[1,2,4]triazolo[1,5-a]pyridin-2-ylamino)-1,3-3-trimethylindolin-2-one] | 0.005 to 250 |
| CNC(=O)c1ccc(Nc2nc3cccc(-c4cccc(C(N)=O)c4)n3n2)cc1 [compound 18, 4-(5-(3-carbamoylphenyl)-[1,2,4]triazolo[1,5-a]pyridin-2-ylamino)-N-methylbenzamide] | 500 to 1000 |
| CC(=O)Nc1cccc(-c2cccc3nc(Nc4ccccc4)nn23)c1 [compound 78, N-(3-(2-(phenylamino)-[1,2,4]triazolo[1,5-a]pyridin-5-yl)phenyl)acetamide] | 1000 to 10000 |
| Cc1n[nH]c2cc(Nc3nc4cccc(CNCC(N)=O)n4n3)ccc12 [Example 186, 2-((2-(3-methyl-1H-indazol-6-ylamino)-[1,2,4]triazolo[1,5-a]pyridin-5-yl)methylamino)acetamide] | 0.005 to 250 |
| Cn1nnc2ccc(Nc3nc4cccc(-c5cccc(O)c5)n4n3)cc21 [compound 28, 3-(2-(1-methyl-1H-benzo[d][1,2,3]triazol-6-ylamino)-[1,2,4]triazolo[1,5-a]pyridin-5-yl)phenol] | 0.005 to 250 |
| COc1cncc(Nc2nc3cccc(-c4ccccc4)n3n2)c1 [compound 38, N-(5-methoxypyridin-3-yl)-5-phenyl-[1,2,4]triazolo[1,5-a]pyridin-2-amine] | 500 to 1000 |
| CN1C(=O)Cc2ccc(Nc3nc4cccc(NC5CCOCC5)n4n3)cc21 [compound 119, 1-methyl-6-(5-(tetrahydro-2H-pyran-4-ylamino)-[1,2,4]triazolo[1,5-a]pyridin-2-ylamino)indolin-2-one] | 1000 to 10000 |
